In US9334264B2, “NAMPT inhibitors” (AbbVie Inc., priority 2012, dated 2016):

Experiments:
[1] = molecular target: NAMPT (human, recombinant, C-terminally His-tagged) (Homo sapiens, UniProt P43490); test: Time-Resolved Fluorescence Resonance Energy Transfer (TR-FRET) Binding Assay of NAMPT; settings: absence of substrates; 6.8 nM NAMPT, 200 nM probe, equilibrated 3 hours
Procedure, shortened: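 Displacement of 200 nM Oregon Green-labelled nicotinamide-competitive probe from 6.8 nM His-tagged NAMPT, detected with 1 nM Tb-anti-His; HEPES pH 7.5, 2% DMSO, 3 h room temperature. Em520/Em495 ratios normalized and fit four-parameter logistic for IC50.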

NAMPT = NAMPT (Homo sapiens, UniProt P43490); test: Time-Resolved Fluorescence Resonance Energy Transfer (TR-FRET) Binding Assay of NAMPT with PRPP; settings: 200 μM PRPP and 2.5 mM ATP; 2 nM NAMPT, 2 nM probe, equilibrated 16 hours
Chain of NAMPT (P43490 whole entry): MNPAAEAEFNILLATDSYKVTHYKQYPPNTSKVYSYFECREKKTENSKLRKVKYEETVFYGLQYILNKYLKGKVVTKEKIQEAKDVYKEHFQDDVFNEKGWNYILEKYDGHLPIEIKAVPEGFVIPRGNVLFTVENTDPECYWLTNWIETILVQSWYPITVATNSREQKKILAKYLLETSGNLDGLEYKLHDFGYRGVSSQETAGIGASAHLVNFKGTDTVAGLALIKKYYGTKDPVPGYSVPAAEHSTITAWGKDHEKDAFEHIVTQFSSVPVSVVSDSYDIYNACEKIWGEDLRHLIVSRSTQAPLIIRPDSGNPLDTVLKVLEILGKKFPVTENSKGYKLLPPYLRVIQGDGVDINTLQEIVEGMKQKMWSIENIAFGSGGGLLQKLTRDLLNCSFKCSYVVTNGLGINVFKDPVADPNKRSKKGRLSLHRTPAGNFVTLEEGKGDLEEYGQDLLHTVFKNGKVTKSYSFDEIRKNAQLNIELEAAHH
Procedure, shortened: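 Binding was measured by TR-FRET with 2 nM NAMPT, 2 nM probe and 1 nM Tb-anti-His antibody in the presence of 200 μM PRPP and 2.5 mM ATP, with 2% DMSO. Equilibration lasted 16 h before reading, allowing possible enzymatic modification of compounds.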

[2] = test system: experimental autoimmune encephalomyelitis (EAE); settings: a model of T-cell mediated autoimmune disorders; cited from earlier work
activated T cells = settings: cited from earlier work
[3] = test system: collagen-induced arthritis; settings: cited from earlier work

Chain of NAMPT (human, recombinant, C-terminally His-tagged) (P43490 whole entry): as above

Molecule `COCCC(=O)N(CCc1cccc(Cl)c1)c1ncc(C(=O)NCCCn2ccnc2)s1` [Example 106, 2-{[2-(3-chlorophenyl)ethyl](3-methoxypropanoyl)amino}-N-[3-(1H-imidazol-1-yl)propyl]-1,3-thiazole-5-carboxamide acetate (1:1)] has an IC50 [1] of 1930 nM and an IC50 (NAMPT) of 1.8 nM.

With `CC(C)C(=O)NCCNC(=O)N(Cc1ccc(C#N)cc1)c1ncc(C(=O)NCCCn2ccnc2)s1` [Example 147, 2-[(4-cyanobenzyl)({2-[(2-methylpropanoyl)amino]ethyl}carbamoyl)amino]-N-[3-(1H-imidazol-1-yl)propyl]-1,3-thiazole-5-carboxamide] the IC50 [1] was greater than 10000 nM and the IC50 (NAMPT) was 71.9 nM.

Molecule `CC(C)CCN(C(=O)C1CC1)c1ncc(C(=O)NCCCn2ccnc2)s1` [Example 152, 2-[(cyclopropylcarbonyl)(3-methylbutyl)amino]-N-[3-(1H-imidazol-1-yl)propyl]-1,3-thiazole-5-carboxamide] has an IC50 [1] of 768 nM and an IC50 (NAMPT) of 0.232 nM.

`CN1CCN(CC(=O)N(Cc2ccc(F)cc2)c2ncc(C(=O)NCCCn3ccnc3)s2)CC1` [Example 30, 2-{(4-fluorobenzyl)[(4-methylpiperazin-1-yl)acetyl]amino}-N-[3-(1H-imidazol-1-yl)propyl]-1,3-thiazole-5-carboxamide] showed an IC50 [1] greater than 10000 nM and an IC50 (NAMPT) of 2.29 nM.

With `CCOCCNC(=O)N(Cc1ccc(F)cc1)c1ncc(C(=O)NCCCn2ccnc2)s1` [Example 83, 2-{[(2-ethoxyethyl)carbamoyl](4-fluorobenzyl)amino}-N-[3-(1H-imidazol-1-yl)propyl]-1,3-thiazole-5-carboxamide] the IC50 [1] was 2890 nM and the IC50 (NAMPT) was 0.998 nM.

Molecule `CCOC(=O)C(C)CNC(=O)N(Cc1ccc(C#N)cc1)c1ncc(C(=O)NCCCn2ccnc2)s1` (stereo not shown) [Example 165, ethyl 3-{[(4-cyanobenzyl)(5-{[3-(1H-imidazol-1-yl)propyl]carbamoyl}-1,3-thiazol-2-yl)carbamoyl]amino}-2-methylpropanoate] has an IC50 [1] of 340 nM and an IC50 (NAMPT) of 99.1 nM.

With `CC1CCN(CC(=O)N(Cc2ccc(F)cc2)c2ncc(C(=O)NCCCn3ccnc3)s2)CC1` [Example 28, 2-{(4-fluorobenzyl)[(4-methylpiperidin-1-yl)acetyl]amino}-N-[3-(1H-imidazol-1-yl)propyl]-1,3-thiazole-5-carboxamide] the IC50 [1] was 7020 nM and the IC50 (NAMPT) was 0.833 nM.

For `O=CN1CCN(CC(=O)N(Cc2ccc(F)cc2)c2ncc(C(=O)NCCCn3ccnc3)s2)CC1` [Example 32, 2-{(4-fluorobenzyl)[(4-formylpiperazin-1-yl)acetyl]amino}-N-[3-(1H-imidazol-1-yl)propyl]-1,3-thiazole-5-carboxamide], the IC50 [1] was greater than 10000 nM and the IC50 (NAMPT) was 1.33 nM.

For `COCCC(=O)N(Cc1cccnc1)c1ncc(C(=O)NCCCn2ccnc2)s1` [Example 122, N-[3-(1H-imidazol-1-yl)propyl]-2-[(3-methoxypropanoyl)(pyridin-3-ylmethyl)amino]-1,3-thiazole-5-carboxamide], the IC50 [1] was greater than 10000 nM and the IC50 (NAMPT) was 4.31 nM.

With `O=C(NCCCn1ccnc1)c1cnc(N(Cc2ccc(Cl)cn2)C(=O)C2CCOC2)s1` (stereo not shown) [Example 206, 2-{[(5-chloropyridin-2-yl)methyl](tetrahydrofuran-3-ylcarbonyl)amino}-N-[3-(1H-imidazol-1-yl)propyl]-1,3-thiazole-5-carboxamide] the IC50 [1] was 5630 nM and the IC50 (NAMPT) was 0.633 nM.

Molecule `COCCC(=O)N(CCNC(=O)C(C)C)c1ncc(C(=O)NCCCn2ccnc2)s1` [Example 199, N-[3-(1H-imidazol-1-yl)propyl]-2-[(3-methoxypropanoyl){2-[(2-methylpropanoyl)amino]ethyl}amino]-1,3-thiazole-5-carboxamide] has an IC50 [1] greater than 10000 nM and an IC50 (NAMPT) of 0.493 nM.

With `NC(=O)C1CCCN(C(=O)N(Cc2ccc(F)cc2)c2ncc(C(=O)NCCCn3ccnc3)s2)C1` (stereo not shown) [Example 65, N^1-(4-fluorobenzyl)-N^1-(5-{[3-(1H-imidazol-1-yl)propyl]carbamoyl}-1,3-thiazol-2-yl)piperidine-1,3-dicarboxamide] the IC50 [1] was greater than 10000 nM and the IC50 (NAMPT) was 5.37 nM.

With `O=C(NCCCn1ccnc1)c1cnc(N(Cc2ccc(F)cc2)C(=O)N2CCC3(C2)OCCO3)s1` [Example 67, N-(4-fluorobenzyl)-N-(5-{[3-(1H-imidazol-1-yl)propyl]carbamoyl}-1,3-thiazol-2-yl)-1,4-dioxa-7-azaspiro[4.4]nonane-7-carboxamide] the IC50 [1] was greater than 10000 nM and the IC50 (NAMPT) was 3.53 nM.

`CC(CO)NC(=O)N(Cc1ccc(C#N)cc1)c1ncc(C(=O)NCCCn2ccnc2)s1` (stereo not shown) [Example 129, 2-{(4-cyanobenzyl)[(1-hydroxypropan-2-yl)carbamoyl]amino}-N-[3-(1H-imidazol-1-yl)propyl]-1,3-thiazole-5-carboxamide] showed an IC50 [1] greater than 10000 nM and an IC50 (NAMPT) of 1.16 nM.

In the case of `COCCN(C(=O)Cc1ccc(Oc2ccccc2)cc1)c1ncc(C(=O)NCCCn2ccnc2)s1` [Example 186, N-[3-(1H-imidazol-1-yl)propyl]-2-{(2-methoxyethyl)[(4-phenoxyphenyl)acetyl]amino}-1,3-thiazole-5-carboxamide], the IC50 [1] is reported as 1100 nM and the IC50 (NAMPT) is reported as 1.23 nM.

With `O=C(NCCCn1ccnc1)c1cnc(N(Cc2ccc(F)cc2)C(=O)NCC2CCCO2)s1` (stereo not shown) [Example 79, 2-{(4-fluorobenzyl)[(tetrahydrofuran-2-ylmethyl)carbamoyl]amino}-N-[3-(1H-imidazol-1-yl)propyl]-1,3-thiazole-5-carboxamide] the IC50 [1] was 6580 nM and the IC50 (NAMPT) was 2.77 nM.

In the case of `COCCN(C(=O)Cc1ccc(C#N)cc1)c1ncc(C(=O)NCCCn2ccnc2)s1` [Example 187, 2-{[(4-cyanophenyl)acetyl](2-methoxyethyl)amino}-N-[3-(1H-imidazol-1-yl)propyl]-1,3-thiazole-5-carboxamide], the IC50 [1] is reported as 3210 nM and the IC50 (NAMPT) is reported as 0.216 nM.

`COCCC(=O)N(CCc1cccc(OC)c1)c1ncc(C(=O)NCCCn2ccnc2)s1` [Example 107, N-[3-(1H-imidazol-1-yl)propyl]-2-{[2-(3-methoxyphenyl)ethyl](3-methoxypropanoyl)amino}-1,3-thiazole-5-carboxamide acetate (1:1)] showed an IC50 [1] of 814 nM and an IC50 (NAMPT) of 2.24 nM.

`COCCC(=O)N(CCOC(C)C)c1ncc(C(=O)NCCCn2ccnc2)s1` [Example 179, N-[3-(1H-imidazol-1-yl)propyl]-2-{(3-methoxypropanoyl)[2-(propan-2-yloxy)ethyl]amino}-1,3-thiazole-5-carboxamide] showed an IC50 [1] of 9800 nM and an IC50 (NAMPT) of 0.492 nM.

`CCN(CC)C(=O)CN(Cc1ccc(F)cc1)c1ncc(C(=O)NCCCn2ccnc2)s1` [Example 21, 2-{[2-(diethylamino)-2-oxoethyl](4-fluorobenzyl)amino}-N-[3-(1H-imidazol-1-yl)propyl]-1,3-thiazole-5-carboxamide] gave an IC50 [1] of 996 nM and an IC50 (NAMPT) of 505 nM.

In the case of `CC(C)CCN(Cc1cccc(F)c1)c1ncc(C(=O)NCCCn2ccnc2)s1` [Example 56, 2-[(3-fluorobenzyl)(3-methylbutyl)amino]-N-[3-(1H-imidazol-1-yl)propyl]-1,3-thiazole-5-carboxamide], the IC50 [1] is reported as 6070 nM and the IC50 (NAMPT) is reported as 0.719 nM.

`CCOC(=O)CCCNC(=O)N(Cc1ccc(C#N)cc1)c1ncc(C(=O)NCCCn2ccnc2)s1` [Example 160, ethyl 4-{[(4-cyanobenzyl)(5-{[3-(1H-imidazol-1-yl)propyl]carbamoyl}-1,3-thiazol-2-yl)carbamoyl]amino}butanoate] showed an IC50 [1] greater than 10000 nM and an IC50 (NAMPT) of 195 nM.

In the case of `O=C(/C=C/c1cccnc1)NCCCCC1CCN(C(=O)c2ccccc2)CC1` [FK866], the “manifestations of experimental autoimmune encephalomyelitis” value [2] is given as “ameliorated the manifestations”, the “apoptosis of activated T cells” value (activated T cells) is given as “induce apoptosis” and the “proliferation of activated T cells” value (activated T cells) is given as “selectively block proliferation”. The “efficacy in animal models of arthritis” value [3] was “efficacious”.

For `O=C(NCCCn1ccnc1)c1cnc(N(Cc2ccc(F)cc2)C(=O)N2CCCOCC2)s1` [Example 73, N-(4-fluorobenzyl)-N-(5-{[3-(1H-imidazol-1-yl)propyl]carbamoyl}-1,3-thiazol-2-yl)-1,4-oxazepane-4-carboxamide], the IC50 [1] was greater than 10000 nM and the IC50 (NAMPT) was 7.04 nM.

For `N#Cc1ccc(CN(C(=O)CC2CCOC2)c2ncc(C(=O)NCCCn3ccnc3)s2)cc1` (stereo not shown) [Example 61, 2-[(4-cyanobenzyl)(tetrahydrofuran-3-ylacetyl)amino]-N-[3-(1H-imidazol-1-yl)propyl]-1,3-thiazole-5-carboxamide], the IC50 [1] was 1900 nM and the IC50 (NAMPT) was 1.78 nM.
